Source: US20150368669A1, “GENE DELIVERY SYSTEM […] GENE AND PHARMACEUTICAL COMPOSITION USING RELAXIN” (INDUSTRY-ACADEMIC COOPERATION FOUNDATION, YONSEI UNIVERSITY, priority 2004, published 2015)

Legend:
Type in all cases: cell-based, human
C33A cells = experiment: Flow cytometry, Annexin-V and PI dual staining, C33A
Method: To examine apoptosis induced by relaxin, human tumor cell lines, U343, U87MG, C33A, Hep3B and A549, were introduced to 25 T culture flasks and 24 hr later, infected with Ad-ΔE1B or Ad-ΔE1B-RLX adenovirus at an MOT of 0.5-5. Cells were treated with 0.1-1 μM CPT-11 […] as a positive control and treated with PBS as a negative control. After 48 hr, 72 hr and 96 hr of infection, the infected cells were collected and fixed in 70% ethanol at 4° C. for 24 hr. Following the fixation, the cells were incubated with a mixture of PI (propidium iodide, […]) and RNase for 15 min and the analysis by flow cytometry was performed. In addition, to examine early apoptosis induced by relaxin, several human tumor cell lines were infected with Ad-ΔE1B or Ad-ΔE1B-RLX adenovirus as described above. The infected cells were collected and then processed for Annexin V/PI dual staining according to manufacturer's instruction in the ApoAlert V-FITC apoptosis kit (Clontech, Palo Alto, Calif.), followed by flow cytometric analysis.

U343 = experiment: TUNEL assay, U343
Method: (§1) U343 (5×10^4), U87MG (5×10^4), C33A (5×10^5), Hep3B (4×10^5), and A549 (5×10^4) cells were plated onto a chamber slide and then infected with adenovirus at an MOT of 0.2-20. Following 24 hr and 48 hr of infection, medium was removed and TUNNEL assay was carried out according to the manufacturer's instruction of ApopTag kit (Intergen, Purchase, N.Y.). For color development, cells were incubated with peroxidase-conjugated streptavidin and then diaminobenzidine (DAKO, Carpinteria, Calif.). At the time that color of cells became brown, cells were counterstained with 0.5% methyl green for 10 min and observed under microscope in more than 4 selected fields. The ratio of stained cells to total cells was calculated.

U87MG = experiment: TUNEL assay, U87MG
Method: as §1

C33A = experiment: TUNEL assay, C33A
Method: as §1

Hep3B = experiment: TUNEL assay, Hep3B
Method: as §1

A549 = experiment: TUNEL assay, A549
Method: as §1

SMILES: CC[C@@]1(O)C(=O)OCc2c1cc1n(c2=O)Cc2cc3ccccc3nc2-1 [CPT, camptothecin]
- apoptotic rate (Annexin-V+/PI−) (C33A cells): 57.10%
- Proportion of apoptotic cells (%) (U343): 53.5 ± 7.45%
- Proportion of apoptotic cells (%) (U87MG): 83.0 ± 29.29%
- Proportion of apoptotic cells (%) (C33A): 60.1 ± 25.41%
- Proportion of apoptotic cells (%) (Hep3B): 71.2 ± 15.73%
- Proportion of apoptotic cells (%) (A549): 37.5 ± 5.35%
